Source: patent US6197768A, “Pyridocarbazole derivatives having cgmp-pde inhibitory activity” (Mochida Pharmaceutical Co., Ltd., priority 1996, dated 2001)
Read-outs that look alike come from different tables or passages of the source.

Key:
PDE type I = assay: PDE Inhibiting Activity, type I; format: biochemical, dog (canine aorta); details: PDE type I from canine aorta, 1 μM substrate, pH 7.5; read-out: Inhibition Activity IC50, Type I
Description: (§1) On the basis of the method of Lugnier et al. (Biochem. Pharmacol., 35, 1743-1751, 1986), PDE was purified from the aorta in a dog. The canine aorta was minced and homogenized with a Waring Blender and a glass homogenizer in six volumes of a Tris-HCl buffer solution (pH 7.5, 20 mM) containing 2 mM magnesium acetate, 5 mM ethylenediaminetetraacetic acid (EDTA), 100 μg/mL of phenylmethylsulforyl fluoride and 15 mM 2-mercaptoethanol (2-ME), and centrifuged at 1200 xg for 30 min. The supernatant was separated and salted out with ammonium sulfate which was added to 45% saturation. The resulting precipitated fraction was resuspended in a Tris-HCl buffer solution (pH 7.5, 20 mM) containing 2 mM magnesium acetate and 1 mM 2-ME, dialyzed overnight and applied to a DEAE-trisacryl column (DEAE […] M:IBF). By elution with a sodium chloride gradient (0-0.4 M), PDE types V and III were separated from the other isozymes. The supernatant fraction of 45% saturated ammonium sulfate was further mixed with ammonium sulfate to 65% saturation and salted out. The resulting precipitated fraction was similarly applied to the DEAE-trisacryl column and eluted by a sodium chloride gradient (0-0.4 M) so as to separate PDE type I.
(§2) The thus obtained PDE types V, III and I were measured for their activity in accordance with the method of Thompson et al. (Adv. Cyclic Nucleotide Res., 10, 69-72, 1979) and the method of Wells et al. (Biochim. Biophys. Acta, 384, 430-443, 1975). Specifically, a purified PDE sample was added to 50 mM Tris-HCl buffer solution (pH 7.5) containing 1 μM of substrate cGMP or cAMP (containing tritium-labelled cGMP or cAMP), 1 mM EGTA and 2 mM magnesium acetate. For PDE activity measurement, enzymatically produced 5' GMP or 5' AMP was further hydrolyzed into guanosine or adenosine with snake venom and separated from the substrate by means of an ion-exchange resin (Dowex 1-X2), followed by measuring with a scintillation counter. The activity of each test compound was determined as a percentage of the DPE activity measured when it was added as a dimethyl sulfoxide solution (DMSO) and its IC50 (50% inhibition concentration) was calculated by the probit method. The final concentration of DMSO was adjusted to be no more than 2% in consideration of the effect on PDE activity.

PDE type III = target: T1, PDE type III (Canis lupus familiaris, UniProt A0A8I3NYE0); assay: PDE Inhibiting Activity, type III; format: biochemical, dog (canine aorta)
T1 construct: PDE was purified from the aorta in a dog; from tissue; host or cells: dog aorta
T1 sequence (A0A8I3NYE0 1-1135): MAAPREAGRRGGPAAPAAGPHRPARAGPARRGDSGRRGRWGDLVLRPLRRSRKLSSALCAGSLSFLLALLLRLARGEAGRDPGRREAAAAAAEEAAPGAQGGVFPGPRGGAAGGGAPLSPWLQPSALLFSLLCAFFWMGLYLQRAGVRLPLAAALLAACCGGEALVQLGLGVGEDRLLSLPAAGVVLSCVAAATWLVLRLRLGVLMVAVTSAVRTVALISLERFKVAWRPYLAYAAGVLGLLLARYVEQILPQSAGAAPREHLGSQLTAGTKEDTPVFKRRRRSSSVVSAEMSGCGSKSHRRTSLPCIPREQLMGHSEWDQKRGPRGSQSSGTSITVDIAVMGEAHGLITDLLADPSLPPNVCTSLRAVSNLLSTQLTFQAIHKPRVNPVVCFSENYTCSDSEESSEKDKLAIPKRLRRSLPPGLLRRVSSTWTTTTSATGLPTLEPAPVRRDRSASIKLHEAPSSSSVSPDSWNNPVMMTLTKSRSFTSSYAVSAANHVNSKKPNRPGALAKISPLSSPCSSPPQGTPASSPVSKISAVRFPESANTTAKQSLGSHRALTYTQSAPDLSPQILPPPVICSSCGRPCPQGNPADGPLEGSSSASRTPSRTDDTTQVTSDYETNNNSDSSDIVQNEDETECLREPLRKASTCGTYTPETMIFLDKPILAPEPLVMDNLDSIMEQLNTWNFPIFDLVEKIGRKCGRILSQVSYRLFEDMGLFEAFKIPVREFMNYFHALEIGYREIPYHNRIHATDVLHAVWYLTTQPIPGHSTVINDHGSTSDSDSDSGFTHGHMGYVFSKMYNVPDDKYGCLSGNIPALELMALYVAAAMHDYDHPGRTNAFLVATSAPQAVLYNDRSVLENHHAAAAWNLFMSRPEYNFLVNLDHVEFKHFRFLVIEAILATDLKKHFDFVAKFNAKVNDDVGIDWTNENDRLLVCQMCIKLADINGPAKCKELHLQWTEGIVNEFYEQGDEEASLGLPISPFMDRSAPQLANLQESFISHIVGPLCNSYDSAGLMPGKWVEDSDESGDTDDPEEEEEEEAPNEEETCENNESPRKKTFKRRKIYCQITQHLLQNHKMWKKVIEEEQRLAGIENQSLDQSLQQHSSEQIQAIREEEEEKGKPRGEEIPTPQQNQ
Description: as §1, §2

[1] = test system: pulmonary arterial pressure; assay: Pulmonary Arterial Pressure Lowering Action in anesthetized dogs; format: in vivo, adult mongrel dogs; details: anesthetized dogs
Description: (§3) Adult mongrel dogs were anesthetized by intramuscular administration of 20 mg/kg of ketamine and intravenous administration of 20 mL/kg of physiological saline containing 5 mg/mL of α-chloralose; under artificial respiration, the aortic pressure was measured with a catheter inserted into the femoral artery and the pulmonary arterial pressure with a Swan-Ganz catheter inserted into the pulmonary artery. Anesthesia was maintained by intravenous administration of physiological saline containing 5 mg/mL of α-chloralose at a rate of 5 mL/kg per hour. Comparison was made between nitroglycerin, nifedipine and test compounds which were administered intravenously at doses of 0.01-1 mg/kg. Each test compound was dissolved in dimethylformamide (DMF) and sequentially diluted with polyethylene glycol 200 and water to give respective proportions of 20, 50 and 30% (v/v) and administrated by injection into the right femoral vein in a volume of 0.3 mL/kg. The results are shown in Table 2 below, in which maximal percent decreases in the pulmonary arterial pressure and aortic pressure are listed to show the effectiveness of each test compound in lowering the pulmonary arterial pressure and the systemic blood pressure, respectively.

systemic blood pressure = assay: Systemic blood (aortic) pressure lowering in anesthetized dogs; format: in vivo, adult mongrel dogs
Description: as §3

[2] = PDE type III from canine aorta, 1 μM substrate, pH 7.5, read-out: Inhibition Activity IC50, Type III
[3] = Canis lupus familiaris, iv, 0.3 mg/kg intravenous, maximal percent decrease, read-out: Reduction in pulmonary arterial pressure
[4] = Canis lupus familiaris, iv, 0.3 mg/kg intravenous, anesthetized dogs, maximal percent decrease, read-out: Reduction in systemic blood pressure

| Structure (SMILES) | IC50 (PDE type I) [µM] | IC50 (PDE type III; [2]) [µM] | inhibition in vivo at 0.3 mg/kg [1, 3] [%] | inhibition in vivo at 0.3 mg/kg (systemic blood pressure; [4]) [%] | other results |
| --- | --- | --- | --- | --- | --- |
| CC(C)(C)OC(=O)COc1cc2c(=O)c(Cc3cccnc3)cn3c4ccc(Br)cc4c(c1)c23 [Example 3, 10-bromo-2-t-butoxycarbonylmethyloxy-5-(3-pyridylmethyl)-4H-pyrido [3,2,1-jk]carbazole-4-one] | > 30 | > 30 | 19 | 12 | – |
| Cc1cn2c3ccc(Br)cc3c3cc(OCC(=O)OC(C)(C)C)cc(c1=O)c32 [Example 50, 10-bromo-2-t-butoxycarbonylmethyloxy-5-methyl-4H-pyrido [3,2,1-jk]carbazole-4-one] | > 30 | > 30 | 33 | 13 | – |
| CC(C)(C)OC(=O)COc1cc2c(=O)ccn3c4ccc(Br)cc4c(c1)c23 [Example 60, 10-bromo-2-t-butoxycarbonylmethyloxy-4H-pyrido [3,2,1-jk]carbazole-4-one] | > 30 | 15 | 20 | 8 | – |
| O=c1c(Cc2cccnc2)cn2c3cc(Br)ccc3c3cc(O)cc1c32 [Example 102, 9-bromo-2-hydroxy-5-(3-pyridylmethyl)-4H-pyrido [3,2,1-jk]carbazole-4-one] | > 30 | 9.3 | 24 | 19 | – |
| O=c1c(Cc2cccnc2)cn2c3cc(Br)ccc3c3cc(OCc4cccnc4)cc1c32 [Example 105, 9-bromo-5-(3-pyridylmethyl)-2-(3-pyridylmethyloxy)-4H-pyrido [3,2,1-jk]carbazole-4-one] | > 30 | 2.4 | – | – | inhibition in vivo at 0.1 mg/kg ([1]; Canis lupus familiaris, iv, 0.1 mg/kg intravenous, maximal percent decrease, read-out: Reduction in pulmonary arterial pressure): 16%; inhibition in vivo at 0.1 mg/kg (systemic blood pressure; Canis lupus familiaris, iv, 0.1 mg/kg intravenous, anesthetized dogs, maximal percent decrease, read-out: Reduction in systemic blood pressure): 12% |
| CCNC(=O)COc1cc2c(=O)c(Cc3cccnc3)cn3c4cc(Br)ccc4c(c1)c23 [Example 109, 9-bromo-2-(N-ethylcarbamoylmethyloxy)-5-(3-pyridylmethyl)-4H-pyrido [3,2,1-jk]carbazole-4-one] | > 30 | – | 19 | 11 | IC50 (PDE type III): 14 µM |
| O=c1c(Cc2cccnc2)cn2c3cc(Br)ccc3c3cc(OCCCO)cc1c32 [Example 110, 9-bromo-2-(3-hydroxypropyloxy)-5-(3-pyridylmethyl)-4H-pyrido [3,2,1-jk]carbazole-4-one] | > 30 | 10 | 23 | 7 | – |
| CCOC(=O)COc1cc2c(=O)c(Cc3cccnc3)cn3c4ccc(Cl)cc4c(c1)c23 [Example 245] | > 30 | 3.9 | – | – | – |
| Cc1cc2c(=O)ccn3c4ccc(Br)cc4c(c1)c23 [Example 277] | > 30 | > 30 | – | – | – |
| CS(=O)(=O)O.O=c1c(Cc2cccnc2)cn2c3cc(Br)ccc3c3cc(OCCCO)cc1c32 [Example 279, 9-bromo-2-(3-hydroxypropyloxy)-5-(3-pyridylmethyl)-4H-pyrido[3,2,1-jk]carbazole-4-one methanesulfonate] | – | – | – | – | Reduction in pulmonary arterial pressure ([1]; 0.3 mg/kg intravenous, maximal percent decrease): 17%; Reduction in systemic blood pressure (systemic blood pressure; 0.3 mg/kg intravenous, anesthetized dogs, maximal percent decrease): 4% |
| O=c1c(Cc2cccnc2)cn2c3cc(Cl)ccc3c3cc(OCCCO)cc1c32 [Example 283, 9-chloro-2-(3-hydroxypropyloxy)-5-(3-pyridylmethyl)-4H-pyrido[3,2,1-jk]carbazole-4-one] | > 30 | 3.6 | – | – | – |
| O=c1c(Cc2cccnc2)cn2c3cc(Cl)ccc3c3cc(OCCCO)cc1c32 [Example 285, 9-chloro-2-(3-hydroxypropyloxy)-5-(3-pyridylmethyl)-4H-pyrido[3,2,1-jk]carbazole-4-one methanesulfonate] | – | – | 16 | 2 | – |
| O=c1c(Cc2cccnc2)cn2c3cc(C(F)(F)F)ccc3c3cc(OCCCO)cc1c32 [Example 289, 2-(3-hydroxypropyloxy)-5-(3-pyridylmethyl)-9-trifluoromethyl-4H-pyrido[3,2,1-jk]carbazole-4-one] | > 30 | 2.5 | – | – | – |
| O=c1c(Cc2cccnc2)cn2c3cc(C(F)(F)F)ccc3c3cc(OCCCO)cc1c32 [Example 291, 2-(3-hydroxypropyloxy)-5-(3-pyridylmethyl)-9-trifluoromethyl-4H-pyrido[3,2,1-jk]carbazole-4-one methanesulfonate] | – | – | 13 | 4 | – |
| COC(=O)C1=C(C)NC(C)=C(C(=O)OC)C1c1ccccc1[N+](=O)[O-] [Nifedipine, nifedipine, reference compound] | – | – | – | – | inhibition in vivo at 0.01 mg/kg ([1]; Canis lupus familiaris, iv, 0.01 mg/kg intravenous, maximal percent decrease, read-out: Reduction in pulmonary arterial pressure): 3%; pulmonary arterial versus systemic blood pressure lowering (in words) ([1]; intravenous): lowered the systemic blood pressure by greater degrees than the pulmonary arterial pressure; inhibition in vivo at 0.01 mg/kg (systemic blood pressure; Canis lupus familiaris, iv, read-out: Reduction in systemic blood pressure): 18% |
